System: human peripheral blood mononuclear cells (PBMC)
Experiment: PBMC cytotoxicity assay (CellTiter-Glo)
Format: cell-based
Details: cytotoxicity in stimulated PBMC, recorded as pCC50
Procedure: Compounds of the present invention were tested via high-throughput cellular assays utilizing detection of kynurenine via mass spectrometry and cytotoxicity as end-points. […] Compounds with IDO1 inhibitory properties decreased the amount of kynurenine produced by the cells via the tryptophan catabolic pathway. Cellular toxicity due to the effect of compound treatment was measured using CellTiter-Glo® reagent (CTG) (Promega Corporation, Madison, Wis.), which is based on luminescent detection of ATP, an indicator of metabolically active cells.
In preparation for the assays, test compounds were serially diluted 3-fold in DMSO from a typical top concentration of 1 mM or 5 mM and plated at 0.5 μL in 384-well, polystyrene, clear bottom, tissue culture treated plates with lids (Greiner Bio-One, Kremsmünster, Austria) to generate 11-point dose response curves. Low control wells (0% kynurenine or 100% cytotoxicity) contained either 0.5 μL of DMSO in the presence of unstimulated (−IFN-γ/−LPS) PBMCs for the mass spectrometry assay or 0.5 μL of DMSO in the absence of cells for the cytotoxicity assay, and high control wells (100% kynurenine or 0% cytotoxicity) contained 0.5 μL of DMSO in the presence of stimulated (+IFN-γ/+LPS) PBMCs for both the mass spectrometry and cytotoxicity assays.
Frozen stocks of PBMCs were washed and recovered in RPMI 1640 medium (Thermo Fisher Scientific, Inc., Waltham, Mass.) supplemented with 10% v/v heat-inactivated fetal bovine serum (FBS) (Thermo Fisher Scientific, Inc., Waltham, Mass.), and 1× penicillin-streptomycin antibiotic solution (Thermo Fisher Scientific, Inc., Waltham, Mass.). The cells were diluted to 1,000,000 cells/mL in the supplemented RPMI 1640 medium. 50 μL of either the cell suspension, for the mass spectrometry assay, or medium alone, for the cytotoxicity assay, were added to the low control wells, on the previously prepared 384-well compound plates, resulting in 50,000 cells/well or 0 cells/well respectively. IFN-γ and LPS were added to the remaining cell suspension at final concentrations of 100 ng/ml and 50 ng/ml respectively, and 50 μL of the stimulated cells were added to all remaining wells on the 384-well compound plates. The plates, with lids, were then placed in a 37° C., 5% CO2 humidified incubator for 2 days.
Following incubation, the 384-well plates were removed from the incubator and allowed to equilibrate to room temperature for 30 minutes. For the cytotoxicity assay, CellTiter-Glo® was prepared according to the manufacturer's instructions, and 40 μL were added to each plate well. After a twenty minute incubation at room temperature, luminescence was read on an EnVision® Multilabel Reader (PerkinElmer Inc., Waltham, Mass.). For the mass spectrometry assay, 10 μL of supernatant from each well of the compound-treated plates were added to 40 μL of acetonitrile, containing 10 μM of an internal standard for normalization, in 384-well, polypropylene, V-bottom plates (Greiner Bio-One, Kremsmünster, Austria) to extract the organic analytes. Following centrifugation at 2000 rpm for 10 minutes, 10 μL from each well of the acetonitrile extraction plates were added to 90 μL of sterile, distilled H2O in 384-well, polypropylene, V-bottom plates for analysis of kynurenine and the internal standard on the RapidFire 300 (Agilent Technologies, Santa Clara, Calif.) and 4000 QTRAP MS (SCIEX, Framingham, Mass.). MS data were integrated using Agilent Technologies' RapidFire Integrator software, and data were normalized for analysis as a ratio of kynurenine to the internal standard.

Structure (SMILES) | PBMC_TOX PXC50
CC(C)CN(c1ncc([C@H](C)CC(=O)O)cc1Nc1ccc(Cl)nc1)C1CC(F)(F)C1 [Example 19, (R)-3-(5-((6-chloropyridin-3-yl)amino)-6-((3,3-difluorocyclobutyl)(isobutyl)amino)pyridin-3-yl) butanoic acid] | <5.0
CO[C@H]1CC[C@@H](N(CC(C)C)c2ncc([C@H](C)CC(=O)O)cc2Nc2nc(Cl)ns2)CC1 [Example 21, (R)-3-(5-((3-chloro-1,2,4-thiadiazol-5-yl)amino)-6-(isobutyl((1s,4S)-4-methoxycyclohexyl)amino)pyridin-3-yl)butanoic acid] | <5.0
CC(C)CN(c1ncc([C@H](C)CC(=O)O)cc1Nc1ccc(C(F)(F)F)cn1)C1CCOCC1 [Example 52, (3R)-3-{6-[(2-methylpropyl)(oxan-4-yl)amino]-5-{[5-(trifluoromethyl)pyridin-2-yl]amino}pyridin-3-yl}butanoic acid] | <5.0
COCc1ccc(Nc2cc([C@H](C)CC(=O)O)cnc2N(CC(C)C)[C@H]2CC[C@@H](OC)CC2)nc1 [Example 58, (3R)-3-(5-{[5-(methoxymethyl)pyridin-2-yl]amino}-6-[(2-methylpropyl)[(1s,4s)-4-methoxycyclohexyl]amino]pyridin-3-yl)butanoic acid] | <5.0
CO[C@H]1CC[C@@H](N(CC(C)C)c2ncc([C@H](C)CC(=O)O)cc2Nc2ccc(Cl)cn2)CC1 [Example 24, (R)-3-(5-((5-chloropyridin-2-yl)amino)-6-(isobutyl((1s,4S)-4-methoxycyclohexyl)amino)pyridin-3-yl)butanoic acid] | <5.0
CC(C)CN(c1ncc([C@H](C)CC(=O)O)cc1Nc1ccc(Cl)nn1)C1CCOCC1 [Example 60, (3R)-3-{5-[(6-chloropyridazin-3-yl)amino]-6-[(2-methylpropyl)(oxan-4-yl)amino]pyridin-3-yl}butanoic acid] | <5.0
CC(C)CN(c1ncc([C@H](C)CC(=O)O)cc1Nc1ccc(C(F)(F)F)nn1)C1CCOCC1 [Example 66, (3R)-3-{6-[(2-methylpropyl)(oxan-4-yl)amino]-5-{[6-(trifluoromethyl)pyridazin-3-yl]amino}pyridin-3-yl}butanoic acid] | <5.0
CC(C)CN(CC(C)C)c1ncc([C@H](C)CC(=O)O)cc1Nc1nnc(C(F)(F)F)s1 [Example 51, (3R)-3-{6-[bis(2-methylpropyl)amino]-5-{[5-(trifluoromethyl)-1,3,4-thiadiazol-2-yl]amino}pyridin-3-yl}butanoic acid] | <5.0
CC(C)CN(c1ncc([C@H](C)CC(=O)O)cc1Nc1nc(C(F)(F)F)ns1)[C@H]1CC[C@H](O)CC1 [Example 28, (R)-3-(6-(((1r,4R)-4-hydroxycyclohexyl)(isobutyl)amino)-5-((3-(trifluoromethyl)-1,2,4-thiadiazol-5-yl)amino)pyridin-3-yl)butanoic acid] | <5.0
CC(C)CN(c1ncc([C@H](C)CC(=O)O)cc1Nc1n[nH]c(C#N)n1)C1CCOCC1 [Example 43, (3R)-3-{5-[(5-cyano-1H-1,2,4-triazol-3-yl)amino]-6-[(2-methylpropyl)(oxan-4-yl)amino]pyridin-3-yl}butanoic acid] | <5.0
COC1CCC(N(CC(C)C)c2ncc(C(C)CC(=O)O)cc2Nc2nc(Cl)ns2)CC1 (stereo not drawn) [Example 46, (3RS)-3-{5-[(3-chloro-1,2,4-thiadiazol-5-yl)amino]-6-[(2-methylpropyl)[(1rs&,4rs&)-4-methoxycyclohexyl]amino]pyridin-3-yl}butanoic acid] | <5.0
CC(C)CN(c1ncc([C@H](C)CC(=O)O)cc1Nc1nc(Cl)ns1)C1CC(F)(F)C1 [Example 81] | <5.0
CC(C)CN(c1ncc(C(C)CC(=O)O)cc1Nc1nc(C(F)(F)F)ns1)C1CCC(O)CC1 (stereo not drawn) [Example 59, (3RS)-3-{6-[(2-methylpropyl)[(1rs&,4rs&)-4-hydroxycyclohexyl]amino]-5-{[3-(trifluoromethyl)-1,2,4-thiadiazol-5-yl]amino}pyridin-3-yl}butanoic acid] | <5.0

— US10787442B2, “Modulators of indoleamine 2,3-dioxygenase” (GLAXOSMITHKLINE INTELLECTUAL PROPERTY DEVELOPMENT LIMITED, priority 2016, dated 2020)
